Experimental data as given in patent US10544130B2, “Metallo-beta-lactamase inhibitors” (priority 2015, dated 2020).

What was measured:
[1] = system: Pseudomonas aeruginosa PAO1 MB9798 (efflux+, IMP-1); settings: ratio MITC95 PA 9798/MITC95 PA 9799; imipenem at 2 μg/mL
Method in brief: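 Isogenic PAO1 pair (efflux+ MB9798, efflux− MB9799, both IMP-1) tested by microbroth MIC with fixed imipenem and/or ceftazidime, usually at CLSI breakpoint, plus fixed class A/C inhibitor against AmpC. MBL inhibitor titrated; concentration restoring susceptibility recorded and fold difference between strains taken as efflux extent.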

[2] = system: Serratia marcescens expressing IMP-1 (CL5741); assay type: cell-based; settings: with imipenem 1 μg/ml; 95% inhibition of bacterial growth
Experimental: Antibiotic Potentiation Activity: Determination of Synergistic Concentration
The bacterial strains tested included the clinical strains Escherichia coli expressing NDM-1 (CLB30005, CLB30016), Serratia marcescens expressing IMP-1 (CL5741), and Klebsiella pneumoniae expressing VIM-1 (IHMA599644). Inhibitor activity was measured in the presence and absence of imipenem in a 384-well microplate.
The clinical strains CLB30016, CL5741 and IHMA599644 were grown on trypticase soy agar containing 5% sheep's blood. The bacteria on agar plates were incubated at 35° C. with humidity overnight. The following day, individual colonies from each clinical strain were picked and resuspended in 5 ml saline to attain an OD600 of 0.14, 0.11, 0.15 and 0.13, for CLB30016, CL5741 and IHMA599644, respectively. These were further diluted 1:100 into 1.1× CAMHB and used to inoculate the test wells as described below.
Imipenem in 10 mM 3-(N-morpholino)propanesulfonic acid (MOPS, pH 7) was stored in single use aliquots at −80° C. […] On the day of the assay, 4 μl of antibiotic was added to 45 ul of bacteria followed by 1 μl of test compound and mixed by pipetting and with an orbital shaker. The concentration of antibiotic used in the assay was 1 μg/ml. Microplates were covered and incubated at 35° C. for 22 hours to 24 hours. At the end of the incubation, absorbance was determined using a spectrophotometer.

## NCCNS(=O)(=O)c1ccc(-c2cccn3ccnc23)c(-c2nn[nH]n2)c1S(N)(=O)=O [Example 361, N1-(2-aminoethyl)-4-(imidazo[1,2-a]pyridin-8-yl)-3-(2H-tetrazol-5-yl)benzene-1,2-disulfonamide]
[1]
  Efflux ratio: 1.00
[2]
  Serratia marcescens (IMP-1) MITC95: 0.7813 µM

## Nc1ccc2cccc(-c3ccc(S(=O)(=O)N[C@H]4CNC[C@H]4N)c(S(N)(=O)=O)c3-c3nn[nH]n3)c2n1 [Example 324, N1-((3S,4R)-4-aminopyrrolidin-3-yl)-4-(2-aminoquinolin-8-yl)-3-(1H-tetrazol-5-yl)benzene-1,2-disulfonamide]
[1]
  Efflux ratio: 1.00
[2]
  Serratia marcescens (IMP-1) MITC95: 0.7813 µM

## CC[C@H](CN)NS(=O)(=O)c1ccc(-c2cccc3[nH]c(N)nc23)c(-c2nn[nH]n2)c1S(N)(=O)=O [Example 265, (R)-4-(2-amino-1H-benzo[d]imidazol-4-yl)-N1-(1-aminobutan-2-yl)-3-(2H-tetrazol-5-yl)benzene-1,2-disulfonamide]
[1]
  Efflux ratio: 1.00
[2]
  Serratia marcescens (IMP-1) MITC95: 0.7813 µM

## NCC(CN)NS(=O)(=O)c1ccc(-c2cccn3ccnc23)c(-c2nn[nH]n2)c1S(N)(=O)=O [Example 386, N1-(1,3-diaminopropan-2-yl)-4-(imidazo[1,2-a]pyridin-8-yl)-3-(2H-tetrazol-5-yl) benzene-1,2-disulfonamide]
[1]
  Efflux ratio: 1.00
[2]
  Serratia marcescens (IMP-1) MITC95: 1.563 µM

## Nc1nc2c(-c3ccc(S(=O)(=O)NC[C@@H]4CCNC4)c(S(N)(=O)=O)c3-c3nn[nH]n3)cccc2[nH]1 [Example 263, (R)-4-(2-amino-1H-benzo[d]imidazol-4-yl)-N1-(pyrrolidin-3-ylmethyl)-3-(2H-tetrazol-5-yl)benzene-1,2-disulfonamide]
[1]
  Efflux ratio: 1.00
[2]
  Serratia marcescens (IMP-1) MITC95: 0.7813 µM

## Nc1nc2c(-c3ccc(S(=O)(=O)NC[C@]4(N)CCNC4)c(S(N)(=O)=O)c3-c3nn[nH]n3)cccc2[nH]1 [Example 250, (S)-4-(2-amino-1H-benzo[d]imidazol-4-yl)-N1-((3-aminopyrrolidin-3-yl)methyl)-3-(2H-tetrazol-5-yl)benzene-1,2-disulfonamide]
[1]
  Efflux ratio: 1.00
[2]
  Serratia marcescens (IMP-1) MITC95: 0.7813 µM

## Nc1nc2c(-c3ccc(S(=O)(=O)NC[C@H]4CCNC4)c(S(N)(=O)=O)c3-c3nn[nH]n3)cccc2[nH]1 [Example 259, (S)-4-(2-amino-1H-benzo[d]imidazol-4-yl)-N1-(pyrrolidin-3-ylmethyl)-3-(2H-tetrazol-5-yl)benzene-1,2-disulfonamide]
[1]
  Efflux ratio: 1.00
[2]
  Serratia marcescens (IMP-1) MITC95: 0.7813 µM

## Nc1ncc(-c2ccc(S(=O)(=O)N[C@@H]3CCNC3)c(S(N)(=O)=O)c2-c2nn[nH]n2)s1 [Example 284, (R)-4-(2-aminothiazol-5-yl)-N1-(pyrrolidin-3-yl)-3-(2H-tetrazol-5-yl)benzene-1,2-disulfonamide]
[2]
  Serratia marcescens (IMP-1) MITC95: 0.7813 µM

## Nc1ccc(-c2ccc(S(=O)(=O)N[C@H]3CNC[C@H]3N)c(S(N)(=O)=O)c2-c2nn[nH]n2)cn1 [Example 413, 4-(6-aminopyridin-3-yl)-N^1-((3S,4R)-4-aminopyrrolidin-3-yl)-3-(2H-tetrazol-5-yl)benzene-1,2-disulfonamide]
[2]
  Serratia marcescens (IMP-1) MITC95: 1.563 µM

## NCCNS(=O)(=O)c1ccc(-c2ccnc(CN)c2)c(-c2nn[nH]n2)c1S(N)(=O)=O [Example 461, N1-(2-Aminoethyl)-4-(2-(aminomethyl)pyridin-4-yl)-3-(2H-tetrazol-5-yl)benzene-1,2-disulfonamide]
[2]
  Serratia marcescens (IMP-1) MITC95: 3.125 µM

## Cn1c(N)nc2c(-c3ccc(S(=O)(=O)NC[C@@H](O)CN)c(S(N)(=O)=O)c3-c3nn[nH]n3)cccc21 [Example 308, (S)-4-(2-amino-1-methyl-1H-benzo[d]imidazol-4-yl)-N1-(3-amino-2-hydroxypropyl)-3-(2H-tetrazol-5-yl)benzene-1,2-disulfonamide]
[1]
  Efflux ratio: 1.00
[2]
  Serratia marcescens (IMP-1) MITC95: 0.7813 µM

## NCCCCNS(=O)(=O)c1ccc(-c2cccc3[nH]c(N)nc23)c(-c2nn[nH]n2)c1S(N)(=O)=O [Example 258, 4-(2-amino-1H-benzo[d]imidazol-7-yl)-N1-(4-aminobutyl)-3-(2H-tetrazol-5-yl)benzene-1,2-disulfonamide]
[1]
  Efflux ratio: 1.00
[2]
  Serratia marcescens (IMP-1) MITC95: 0.7813 µM

## NCCNS(=O)(=O)c1ccc(-c2cccc3[nH]c([C@H](N)CO)nc23)c(-c2nn[nH]n2)c1S(N)(=O)=O [Example 330, (S)-4-(2-(1-amino-2-hydroxyethyl)-1H-benzo[d]imidazol-4-yl)-N1-(2-aminoethyl)-3-(2H-tetrazol-5-yl)benzene-1,2-disulfonamide]
[1]
  Efflux ratio: 1.00
[2]
  Serratia marcescens (IMP-1) MITC95: 1.563 µM

## N[C@@H]1CNC[C@@H]1NS(=O)(=O)c1ccc(-c2cccn3ccnc23)c(-c2nn[nH]n2)c1S(N)(=O)=O [Example 328, N1-((3S,4R)-4-aminopyrrolidin-3-yl)-4-(imidazo[1,2-a]pyridin-8-yl)-3-(2H-tetrazol-5-yl)benzene-1,2-disulfonamide]
[1]
  Efflux ratio: 1.00
[2]
  Serratia marcescens (IMP-1) MITC95: 1.563 µM

## Nc1ccc(-c2ccc(S(=O)(=O)NCC3(O)CCNCC3)c(S(N)(=O)=O)c2-c2nn[nH]n2)cn1 [Example 492, 4-(6-aminopyridin-3-yl)-N1-((4-hydroxypiperidin-4-yl)methyl)-3-(2H-tetrazol-5-yl)benzene-1,2-disulfonamide]
[2]
  Serratia marcescens (IMP-1) MITC95: 1.563 µM

## C[N+]1(C)CC(NS(=O)(=O)c2ccc(-c3cccc4[nH]c(N)nc34)c(-c3nn[nH]n3)c2S(N)(=O)=O)C1.O=C([O-])O [Example 245, 3-(4-(2-Amino-1H-benzo[d]imidazol-4-yl)-2-sulfamoyl-3-(2H-tetrazol-5-yl)phenylsulfonamido)-1,1-dimethylazetidin-1-ium hydrogencarbonate]
[1]
  Efflux ratio: 1.00
[2]
  Serratia marcescens (IMP-1) MITC95: 1.563 µM

## C[C@@H](N)CNS(=O)(=O)c1ccc(-c2ccc3nccn3c2)c(-c2nn[nH]n2)c1S(N)(=O)=O [Example 423, (R)-N^1-(2-aminopropyl)-4-(imidazo[1,2-a]pyridin-6-yl)-3-(2H-tetrazol-5-yl)benzene-1,2-disulfonamide]
[2]
  Serratia marcescens (IMP-1) MITC95: 0.7813 µM

## NC[C@@H](N)CNS(=O)(=O)c1ccc(-c2ccc(N)nc2)c(-c2nn[nH]n2)c1S(N)(=O)=O [Example 416, (R)-4-(6-aminopyridin-3-yl)-N^1-(2,3-diaminopropyl)-3-(2H-tetrazol-5-yl)benzene-1,2-disulfonamide]
[2]
  Serratia marcescens (IMP-1) MITC95: 1.563 µM

## NC[C@@H](N)CNS(=O)(=O)c1ccc(-c2cnc3cc[nH]c3c2)c(-c2nn[nH]n2)c1S(N)(=O)=O [Example 378, (R)-N 1-(2,3-diaminopropyl)-4-(1H-pyrrolo[3,2-b]pyridin-6-yl)-3-(2H-tetrazol-5-yl)benzene-1,2-disulfonamide]
[1]
  Efflux ratio: 2.00
[2]
  Serratia marcescens (IMP-1) MITC95: 1.563 µM

## CN1CC(NS(=O)(=O)c2ccc(-c3cccc4[nH]c(N)nc34)c(-c3nn[nH]n3)c2S(N)(=O)=O)C1 [Example 256, 4-(2-amino-1H-benzo[d]imidazol-4-yl)-N1-(1-methylazetidin-3-yl)-3-(2H-tetrazol-5-yl)benzene-1,2-disulfonamide]
[1]
  Efflux ratio: 1.00
[2]
  Serratia marcescens (IMP-1) MITC95: 0.7813 µM

## Nc1ccc(-c2ccc(S(=O)(=O)NC3CC(N)C3)c(S(N)(=O)=O)c2-c2nn[nH]n2)cn1 [Example 483, N1-((1R,3R)-3-aminocyclobutyl)-4-(6-aminopyridin-3-yl)-3-(2H-tetrazol-5-yl)benzene-1,2-disulfonamide]
[2]
  Serratia marcescens (IMP-1) MITC95: 0.7813 µM

## Nc1ccc(-c2ccc(S(=O)(=O)N[C@H]3CN[C@H](CO)C3)c(S(N)(=O)=O)c2-c2nn[nH]n2)cn1 [Example 411, 4-(6-aminopyridin-3-yl)-N^1-((3R,5S)-5-(hydroxymethyl)pyrrolidin-3-yl)-3-(2H-tetrazol-5-yl)benzene-1,2-disulfonamide]
[2]
  Serratia marcescens (IMP-1) MITC95: 1.563 µM

## N[C@H]1C=C(c2ccc(S(=O)(=O)N[C@@H]3CCNC3)c(S(N)(=O)=O)c2-c2nn[nH]n2)CCC1 [Example 339, (R)-5′-amino-N4-((R)-pyrrolidin-3-yl)-2-(2H-tetrazol-5-yl)-2′,3′,4′,5′-tetrahydro-[1,1′-biphenyl]-3,4-disulfonamide]
[1]
  Efflux ratio: 4.00
[2]
  Serratia marcescens (IMP-1) MITC95: 1.563 µM

## NC[C@H](CO)NS(=O)(=O)c1ccc(-c2cccc3nc(N)[nH]c23)c(-c2nn[nH]n2)c1S(N)(=O)=O [Example 427, (R)-4-(2-amino-1H-benzo[d]imidazol-4-yl)-N^1-(1-amino-3-hydroxypropan-2-yl)-3-(1H-tetrazol-5-yl)benzene-1,2-disulfonamide]
[2]
  Serratia marcescens (IMP-1) MITC95: 0.7813 µM
